From patent publication US5962284A, “Acrylamidase enzymes” (Ciba Specialty Chemicals Water Treatments Limited, priority 1997, dated 1999)

Key:
[1] = test system: acrylamidase produced by Rhodococcus erythropolis NCIMB 40889; assay: Adipic acid activity assay (amidase activity at pH 4 with added adipic acid); assay type: biochemical; settings: pH 4, 50 mM acrylamide, 30° C.
Text: (§1) For measurement of Km (see below) the same conditions can be used, except that the acrylamide concentration is of course varied. One unit (U) of amidase activity hydrolyses 1 micromole of acrylamido per minute under the above conditions. The specific activity is the amount of units of activity present per dry gram of cell material. The relative activity is the % activity relative to activity at ph 7.
In this specification, comparison of acrylamidase activity in the presence of adipic acid and in the absence of adipic acid is measured by the following adipic acid activity assay:
To an assay mixture at pH 4 as described for measurement of activity at pH 4 and pH 7 is added adipic acid to give the concentrations required. Cell suspension is then added to the assay mixture. The amidase activity of each suspension is then measured. The relative activity is % activity relative to activity in the absence of adipic acid.

[2] = test system: acrylamidase produced by Rhodococcus erythropolis NCIMB 40889; settings: read-out: Km for acrylamide; pH 4.0, 30° C., cell suspension
Text: as §1
(§2) In this specification, Km is Km for acrylamide measured at pH 4.0.

[3] = test system: acrylamidase produced by Rhodococcus species NCIMB 40755; settings: read-out: Km for acrylamide; pH 4.0, 30° C., cell suspension
Text: as §1, §2

SMILES | Relative Activity (%) relative to activity in the absence of adipic acid ([1]; 5 mM adipic acid) | Relative Activity (%) relative to activity in the absence of adipic acid ([1]; 10 mM adipic acid) | Relative Activity (%) relative to activity in the absence of adipic acid ([1]; 15 mM adipic acid) | Relative Activity (%) relative to activity in the absence of adipic acid ([1]; 22.5 mM adipic acid) | Relative Activity (%) relative to activity in the absence of adipic acid ([1]; 25 mM adipic acid) | Relative Activity (%) relative to activity in the absence of adipic acid ([1]; 50 mM adipic acid) | Km [2] | Km [3]
O=C(O)CCCCC(=O)O [Adipic Acid, adipic acid] | 95% | 69% | 38% | 30% | 29% | 12% |  | 
C=CC(N)=O [acrylamide] |  |  |  |  |  |  | 11.6 mM | 6 mM
